{"source": "patent US20150141336A1", "about": "“Pancreatic Peptide Compounds and Use” (Novo Nordisk A/S, priority 2012, published 2015)", "note": "Numbered stars: 1 amine (or outer) side, 2 acyl side, 3 side chain; on linkers, the order of the positions; unused ones are H or OH. Side chains are listed from the residue outwards. Peptide text beside a SMILES is read from it. * marks the point of attachment. C18 diacid = O=C(O)CCCCCCCCCCCCCCCCC(=O)*; γGlu = O=C(O)[C@H](CCC(=O)[*:2])N[*:1]; AEEA = NCCOCCOCC(=O)O", "data": [{"assay": "Assay (II) PK i.v. minipig, in vivo half-life", "design": "species or system Göttingen mini-pigs", "settings": "male, Göttingen, minipig, iv, Half-life minipig, Assay (II)", "procedure,_shortened": "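Plasma levels after a single 6 nmol/kg intravenous dose in five male Göttingen mini-pigs were measured by TFC/LC/MS/MS against spiked-plasma calibration, sampling to 240 h. Vehicle: 50 mM K2HPO4, 0.05% tween 80, pH 8.0. Individual profiles analysed non-compartmentally for half-life.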", "units": {"half-life": "h"}, "values": [{"smiles": "CC[C@H](C)[C@H](NC(=O)[C@H](Cc1ccc(O)cc1)NC(=O)[C@H](CCCNC(=N)N)NC(=O)[C@H](CCCNC(=N)N)NC(=O)[C@H](CC(C)C)NC(=O)[C@H](CC(=O)O)NC(=O)[C@H](C)NC(=O)[C@H](C)NC(=O)[C@H](Cc1ccc(O)cc1)NC(=O)[C@H](CCC(N)=O)NC(=O)[C@H](C)NC(=O)[C@H](CCSC)NC(=O)[C@H](CCC(N)=O)NC(=O)[C@H](CCC(=O)O)NC(=O)[C@@H]1CCCN1C(=O)[C@@H](NC(=O)[C@H](C)NC(=O)[C@H](CC(N)=O)NC(=O)[C@H](CC(=O)O)NC(=O)CNC(=O)[C@@H]1CCCN1C(=O)[C@H](Cc1ccc(O)cc1)NC(=O)[C@@H](NC(=O)[C@@H]1CCCN1C(=O)[C@H](CCC(=O)O)NC(=O)[C@H](CC(C)C)NC(=O)[C@@H]1CCCN1)C(C)C)[C@@H](C)O)C(=O)N[C@@H](CC(N)=O)C(=O)N[C@@H](CCSC)C(=O)N[C@@H](CC(C)C)C(=O)N[C@@H](CCCCNC(=O)COCCOCCNC(=O)COCCOCCNC(=O)CC[C@H](NC(=O)CCCCCCCCCCCCCCCCC(=O)O)C(=O)O)C(=O)N[C@@H](CCCNC(=N)N)C(=O)N1CCC[C@H]1C(=O)N[C@@H](CCCNC(=N)N)C(=O)N[C@@H](Cc1ccc(O)cc1)C(N)=O", "note": "[Compound B] (H-PLEPVYPGDNATPEQMAQYAADLRRYINMLK([AEEA-AEEA-γGlu-C18 diacid])RPRY-NH2; N-terminus and C-terminus assumed)", "half-life": 93}, {"smiles": "CC[C@H](C)[C@H](NC(=O)[C@H](Cc1ccc(O)cc1)NC(=O)[C@H](CCCNC(=N)N)NC(=O)[C@H](CCCNC(=N)N)NC(=O)[C@H](CC(C)C)NC(=O)[C@H](CC(=O)O)NC(=O)[C@H](C)NC(=O)[C@H](C)NC(=O)[C@H](Cc1ccc(O)cc1)NC(=O)[C@H](CCC(N)=O)NC(=O)[C@H](C)NC(=O)[C@H](CCSC)NC(=O)[C@H](CCC(N)=O)NC(=O)[C@H](CCC(=O)O)NC(=O)[C@@H]1CCCN1C(=O)[C@@H](NC(=O)[C@H](C)NC(=O)[C@H](CC(N)=O)NC(=O)[C@H](CC(=O)O)NC(=O)CNC(=O)[C@@H]1CCCN1C(=O)[C@H](Cc1ccc(O)cc1)NC(=O)[C@@H](NC(=O)[C@@H]1CCCN1C(=O)[C@H](CCC(=O)O)NC(=O)[C@H](CC(C)C)NC(=O)[C@@H]1CCCN1)C(C)C)[C@@H](C)O)C(=O)N[C@@H](CC(N)=O)C(=O)N[C@@H](CCSC)C(=O)N[C@@H](CCCCNC(=O)COCCOCCNC(=O)COCCOCCNC(=O)CC[C@H](NC(=O)CCCCCCCCCCCCCCCCC(=O)O)C(=O)O)C(=O)N[C@H](C(=O)N[C@@H](CCCNC(=N)N)C(=O)N1CCC[C@H]1C(=O)N[C@@H](CCCNC(=N)N)C(=O)N[C@@H](Cc1ccc(O)cc1)C(N)=O)[C@@H](C)O", "note": "[Compound C] (H-PLEPVYPGDNATPEQMAQYAADLRRYINMK([AEEA-AEEA-γGlu-C18 diacid])TRPRY-NH2; N-terminus and C-terminus assumed)", "half-life": 94}, {"smiles": "CC[C@H](C)[C@H](NC(=O)[C@H](Cc1ccc(O)cc1)NC(=O)[C@H](CCCNC(=N)N)NC(=O)[C@H](CCCNC(=N)N)NC(=O)[C@H](CC(C)C)NC(=O)[C@H](CC(=O)O)NC(=O)[C@H](C)NC(=O)[C@H](C)NC(=O)[C@H](Cc1ccc(O)cc1)NC(=O)[C@H](CCC(N)=O)NC(=O)[C@H](C)NC(=O)[C@H](CCSC)NC(=O)[C@H](CCC(N)=O)NC(=O)[C@H](CCC(=O)O)NC(=O)[C@@H]1CCCN1C(=O)[C@@H](NC(=O)[C@H](C)NC(=O)[C@H](CC(N)=O)NC(=O)[C@H](CC(=O)O)NC(=O)CNC(=O)[C@@H]1CCCN1C(=O)[C@H](Cc1ccc(O)cc1)NC(=O)[C@@H](NC(=O)[C@@H]1CCCN1C(=O)[C@H](CCC(=O)O)NC(=O)[C@H](CC(C)C)NC(=O)[C@@H]1CCCN1)C(C)C)[C@@H](C)O)C(=O)N[C@@H](CC(N)=O)C(=O)N[C@@H](CCCCNC(=O)COCCOCCNC(=O)COCCOCCNC(=O)CC[C@H](NC(=O)CCCCCCCCCCCCCCCCC(=O)O)C(=O)O)C(=O)N[C@@H](CC(C)C)C(=O)N[C@H](C(=O)N[C@@H](CCCNC(=N)N)C(=O)N1CCC[C@H]1C(=O)N[C@@H](CCCNC(=N)N)C(=O)N[C@@H](Cc1ccc(O)cc1)C(N)=O)[C@@H](C)O", "note": "[Compound D] (H-PLEPVYPGDNATPEQMAQYAADLRRYINK([AEEA-AEEA-γGlu-C18 diacid])LTRPRY-NH2; N-terminus and C-terminus assumed)", "half-life": 77}, {"smiles": "CC[C@H](C)[C@H](NC(=O)[C@H](Cc1ccc(O)cc1)NC(=O)[C@H](CCCNC(=N)N)NC(=O)[C@H](CCCNC(=N)N)NC(=O)[C@H](CC(C)C)NC(=O)[C@H](CC(=O)O)NC(=O)[C@H](C)NC(=O)[C@H](C)NC(=O)[C@H](Cc1ccc(O)cc1)NC(=O)[C@H](CCC(N)=O)NC(=O)[C@H](C)NC(=O)[C@H](CCSC)NC(=O)[C@H](CCC(N)=O)NC(=O)[C@H](CCC(=O)O)NC(=O)[C@@H]1CCCN1C(=O)[C@@H](NC(=O)[C@H](C)NC(=O)[C@H](CC(N)=O)NC(=O)[C@H](CC(=O)O)NC(=O)CNC(=O)[C@@H]1CCCN1C(=O)[C@H](Cc1ccc(O)cc1)NC(=O)[C@@H](NC(=O)[C@@H]1CCCN1C(=O)[C@H](CCC(=O)O)NC(=O)[C@H](CC(C)C)NC(=O)[C@@H]1CCCN1)C(C)C)[C@@H](C)O)C(=O)N[C@@H](CCCCNC(=O)COCCOCCNC(=O)COCCOCCNC(=O)CC[C@H](NC(=O)CCCCCCCCCCCCCCCCC(=O)O)C(=O)O)C(=O)N[C@@H](CCSC)C(=O)N[C@@H](CC(C)C)C(=O)N[C@H](C(=O)N[C@@H](CCCNC(=N)N)C(=O)N1CCC[C@H]1C(=O)N[C@@H](CCCNC(=N)N)C(=O)N[C@@H](Cc1ccc(O)cc1)C(N)=O)[C@@H](C)O", "note": "[Compound E] (H-PLEPVYPGDNATPEQMAQYAADLRRYIK([AEEA-AEEA-γGlu-C18 diacid])MLTRPRY-NH2; N-terminus and C-terminus assumed)", "half-life": 110}, {"smiles": "CC[C@H](C)[C@H](NC(=O)[C@H](CCCCNC(=O)COCCOCCNC(=O)COCCOCCNC(=O)CC[C@H](NC(=O)CCCCCCCCCCCCCCCCC(=O)O)C(=O)O)NC(=O)[C@H](CCCNC(=N)N)NC(=O)[C@H](CCCNC(=N)N)NC(=O)[C@H](CC(C)C)NC(=O)[C@H](CC(=O)O)NC(=O)[C@H](C)NC(=O)[C@H](C)NC(=O)[C@H](Cc1ccc(O)cc1)NC(=O)[C@H](CCC(N)=O)NC(=O)[C@H](C)NC(=O)[C@H](CCSC)NC(=O)[C@H](CCC(N)=O)NC(=O)[C@H](CCC(=O)O)NC(=O)[C@@H]1CCCN1C(=O)[C@@H](NC(=O)[C@H](C)NC(=O)[C@H](CC(N)=O)NC(=O)[C@H](CC(=O)O)NC(=O)CNC(=O)[C@@H]1CCCN1C(=O)[C@H](Cc1ccc(O)cc1)NC(=O)[C@@H](NC(=O)[C@@H]1CCCN1C(=O)[C@H](CCC(=O)O)NC(=O)[C@H](CC(C)C)NC(=O)[C@@H]1CCCN1)C(C)C)[C@@H](C)O)C(=O)N[C@@H](CC(N)=O)C(=O)N[C@@H](CCSC)C(=O)N[C@@H](CC(C)C)C(=O)N[C@H](C(=O)N[C@@H](CCCNC(=N)N)C(=O)N1CCC[C@H]1C(=O)N[C@@H](CCCNC(=N)N)C(=O)N[C@@H](Cc1ccc(O)cc1)C(N)=O)[C@@H](C)O", "note": "[Compound G] (H-PLEPVYPGDNATPEQMAQYAADLRRK([AEEA-AEEA-γGlu-C18 diacid])INMLTRPRY-NH2; N-terminus and C-terminus assumed)", "half-life": 96}, {"smiles": "CC[C@H](C)[C@H](NC(=O)[C@H](Cc1ccc(O)cc1)NC(=O)[C@H](CCCCNC(=O)COCCOCCNC(=O)COCCOCCNC(=O)CC[C@H](NC(=O)CCCCCCCCCCCCCCCCC(=O)O)C(=O)O)NC(=O)[C@H](CCCNC(=N)N)NC(=O)[C@H](CC(C)C)NC(=O)[C@H](CC(=O)O)NC(=O)[C@H](C)NC(=O)[C@H](C)NC(=O)[C@H](Cc1ccc(O)cc1)NC(=O)[C@H](CCC(N)=O)NC(=O)[C@H](C)NC(=O)[C@H](CCSC)NC(=O)[C@H](CCC(N)=O)NC(=O)[C@H](CCC(=O)O)NC(=O)[C@@H]1CCCN1C(=O)[C@@H](NC(=O)[C@H](C)NC(=O)[C@H](CC(N)=O)NC(=O)[C@H](CC(=O)O)NC(=O)CNC(=O)[C@@H]1CCCN1C(=O)[C@H](Cc1ccc(O)cc1)NC(=O)[C@@H](NC(=O)[C@@H]1CCCN1C(=O)[C@H](CCC(=O)O)NC(=O)[C@H](CC(C)C)NC(=O)[C@@H]1CCCN1)C(C)C)[C@@H](C)O)C(=O)N[C@@H](CC(N)=O)C(=O)N[C@@H](CCSC)C(=O)N[C@@H](CC(C)C)C(=O)N[C@H](C(=O)N[C@@H](CCCNC(=N)N)C(=O)N1CCC[C@H]1C(=O)N[C@@H](CCCNC(=N)N)C(=O)N[C@@H](Cc1ccc(O)cc1)C(N)=O)[C@@H](C)O", "note": "[Compound H]", "half-life": 62}, {"smiles": "CC[C@H](C)[C@H](NC(=O)[C@H](Cc1ccc(O)cc1)NC(=O)[C@H](CCCNC(=N)N)NC(=O)[C@H](CCCCNC(=O)COCCOCCNC(=O)COCCOCCNC(=O)CC[C@H](NC(=O)CCCCCCCCCCCCCCCCC(=O)O)C(=O)O)NC(=O)[C@H](CC(C)C)NC(=O)[C@H](CC(=O)O)NC(=O)[C@H](C)NC(=O)[C@H](C)NC(=O)[C@H](Cc1ccc(O)cc1)NC(=O)[C@H](CCC(N)=O)NC(=O)[C@H](C)NC(=O)[C@H](CCSC)NC(=O)[C@H](CCC(N)=O)NC(=O)[C@H](CCC(=O)O)NC(=O)[C@@H]1CCCN1C(=O)[C@@H](NC(=O)[C@H](C)NC(=O)[C@H](CC(N)=O)NC(=O)[C@H](CC(=O)O)NC(=O)CNC(=O)[C@@H]1CCCN1C(=O)[C@H](Cc1ccc(O)cc1)NC(=O)[C@@H](NC(=O)[C@@H]1CCCN1C(=O)[C@H](CCC(=O)O)NC(=O)[C@H](CC(C)C)NC(=O)[C@@H]1CCCN1)C(C)C)[C@@H](C)O)C(=O)N[C@@H](CC(N)=O)C(=O)N[C@@H](CCSC)C(=O)N[C@@H](CC(C)C)C(=O)N[C@H](C(=O)N[C@@H](CCCNC(=N)N)C(=O)N1CCC[C@H]1C(=O)N[C@@H](CCCNC(=N)N)C(=O)N[C@@H](Cc1ccc(O)cc1)C(N)=O)[C@@H](C)O", "note": "[Compound I] (H-PLEPVYPGDNATPEQMAQYAADLK([AEEA-AEEA-γGlu-C18 diacid])RYINMLTRPRY-NH2; N-terminus and C-terminus assumed)", "half-life": 88}]}]}
